Values of other authors as cited in US20050009848A1, “Use of antivirals against inflammatory bowel diseases” (ICN Pharmaceuticals Switzerland Ltd., priority 2003, published 2005).

Details: one patient with Crohn's disease, HSV-I and HSV-II DNA detected in intestinal mucosa; acyclovir co-used with classical mesalazin-corticosteroid therapy

Nc1nc2c(ncn2COCCO)c(=O)[nH]1 [acyclovir]
morphological and clinical findings: changed the morphological and clinical findings decisively
